Test results as given in patent publication US20240270762A1, “PENICILLIN-BINDING PROTEIN INHIBITORS” (priority 2021, published 2024).
Converted amounts (≈) assume the structure as drawn. Read-outs that look alike come from different tables or passages of the source.

Key:
[1] = molecular target: T1, PBP3 from Escherichia coli (K-12) (Escherichia coli, UniProt P0AD68); assay: Bocillin-FL fluorescence polarization competition binding, E. coli PBP3
T1 construct: made in house
Procedure, shortened: (§1)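 Purified PBP was preincubated with inhibitor (E. coli PBP3 1.5 μM, 30 min; P. aeruginosa PBP3 0.75 μM, A. baumannii PBP3 0.2 μM and PBP1a 1 μM, 15 min), then Bocillin-FL (0.1 μM; 0.05 μM for PBP1a) added and FP read up to 60 min. EC50 = 50% loss of bound probe.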

[2] = molecular target: T2, PBP3 from Pseudomonas aeruginosa (PAO1) (Pseudomonas aeruginosa, UniProt G3XD46); assay: Bocillin-FL fluorescence polarization competition binding, P. aeruginosa PBP3; conditions: Binding affinity to P. aeruginosa PBP3; fluorescence polarization competition binding assay using Bocillin-FL; read-out: P. aeruginosa PBP3 Potency
T2 construct: made in house
Procedure, shortened: as §1

[3] = molecular target: T3, PBP1a from Acinetobacter baumannii (ATCC 19606) (Acinetobacter baumannii, UniProt A0ABX6CK30); assay: Bocillin-FL fluorescence polarization competition binding, A. baumannii PBP1a; conditions: fluorescence polarization competition binding assay using Bocillin-FL; read-out: A. baumannii PBP1a Potency
T3 sequence (A0ABX6CK30 1-851): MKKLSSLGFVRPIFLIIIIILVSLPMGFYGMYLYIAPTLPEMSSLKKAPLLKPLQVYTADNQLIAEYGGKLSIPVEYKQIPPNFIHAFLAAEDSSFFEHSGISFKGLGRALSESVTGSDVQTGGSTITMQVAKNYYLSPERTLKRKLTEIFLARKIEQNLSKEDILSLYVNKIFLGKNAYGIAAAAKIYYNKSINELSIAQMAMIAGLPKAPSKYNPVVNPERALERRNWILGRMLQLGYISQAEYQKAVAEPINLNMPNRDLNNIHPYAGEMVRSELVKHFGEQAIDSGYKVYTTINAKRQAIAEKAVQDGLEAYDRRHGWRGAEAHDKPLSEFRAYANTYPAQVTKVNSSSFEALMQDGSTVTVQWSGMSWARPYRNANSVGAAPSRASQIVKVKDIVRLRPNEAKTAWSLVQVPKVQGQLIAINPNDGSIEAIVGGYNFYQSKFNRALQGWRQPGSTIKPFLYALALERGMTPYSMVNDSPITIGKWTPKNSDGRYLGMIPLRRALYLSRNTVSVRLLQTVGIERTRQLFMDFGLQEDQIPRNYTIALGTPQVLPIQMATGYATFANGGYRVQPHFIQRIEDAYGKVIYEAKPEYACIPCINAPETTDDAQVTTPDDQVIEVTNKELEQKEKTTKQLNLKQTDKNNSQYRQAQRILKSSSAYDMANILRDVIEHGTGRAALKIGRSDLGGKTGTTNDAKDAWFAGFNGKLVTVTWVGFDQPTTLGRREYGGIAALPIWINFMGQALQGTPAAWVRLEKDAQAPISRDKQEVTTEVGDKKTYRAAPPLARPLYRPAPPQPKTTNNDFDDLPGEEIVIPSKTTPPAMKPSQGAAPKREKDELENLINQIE
Procedure, shortened: as §1

A. baumannii ATCC 17978 = assay: microbe, parasite or virus in culture; format: cell-based; conditions: Acinetobacter baumannii, ATCC17978, read-out: MIC, A. baumannii ATCC 17978
P. aeruginosa CDC-0090 = assay: microbe, parasite or virus in culture; format: cell-based; conditions: Pseudomonas aeruginosa, CDC0090, read-out: Minimum inhibitory concentration, P. aeruginosa CDC-0090
A. baumannii CDC-0033 = assay: microbe, parasite or virus in culture; format: cell-based; conditions: Acinetobacter baumannii, CDC0033, read-out: MIC, A. baumannii CDC-0033
[4] = tested on: N. gonorrhoeae ATCC 49226; assay: Liquid broth MIC in Fastidious broth; conditions: Neisseria gonorrhoeae
Procedure: Additional antibacterial testing of the series was performed in 8 reference strains of N. gonorrhoeae (ATCC 49226, FA1090, MS 11, WHO G, WHO L, WHO M, WHO K, WHO X, WHO Z, WHO Q, CDC-0197). ATCC 49226, FA1090, MS11, WHO G, WHO L, and WHO M produce wild type or wild-type like PBP2. WHO K, WHO X, WHO Z, WHO Q, and CDC-0197 produce mosaic PBP2. Liquid broth-based assays were used for antibacterial testing of PBP inhibitors in Neisseria gonorrhoeae. Briefly, cryo-preserved bacterial cultures of clinical strains were streaked for isolation on Chocolate Agar (72 g/L (2×) GC Agar Base (BD #228950) and 2% (2×) Hemoglobin was autoclaved at 121° C. for 20 minutes to sterilize. Once cooled to ˜50° C. the 2×GC Agar Base and 2× Hemoglobin solutions are combined and 1% IsoVitaleX Enrichment (BD #211876) was added to the solution). Strains were incubated at 36° C. and 5% CO2 to allow growth of colonies, 24 hours before inoculum preparation. 2-fold serial dilutions of test compounds were conducted in a 96 well plate with a final volume of 75 μL per well at 2-fold the final desired concentration in Fastidious broth (Remel #R07664). For preparation of assay inoculum, a direct suspension was prepared by aseptically swabbing 10-15 colonies from agar plates into culture tubes containing 2 mL of fresh sterile saline. After the dilution plates were set up, direct suspensions were then diluted in a cuvette containing sterile saline and the optical density was measured at 600 nm. Inocula were diluted such that 75 μL of this culture in Fastidious broth results in a starting bacterial concentration of 5×10^5 CFU/mL when added to the dilution plates. The plates were incubated for ˜24 hours at 36° C. and 5% CO2.

N. gonorrhoeae WHO L = assay: Liquid broth MIC in Fastidious broth; conditions: Neisseria gonorrhoeae
[5] = ATCC49226, read-out: Minimum Inhibitory Concentration (MIC), N. gonorrhoeae ATCC 49226
[6] = read-out: Minimum Inhibitory Concentration (MIC), N. gonorrhoeae WHO L
[7] = ATCC49226, read-out: Minimum Inhibitory Concentration, ATCC 49226
[8] = read-out: Minimum Inhibitory Concentration, WHO L

T2 sequence (G3XD46 whole entry): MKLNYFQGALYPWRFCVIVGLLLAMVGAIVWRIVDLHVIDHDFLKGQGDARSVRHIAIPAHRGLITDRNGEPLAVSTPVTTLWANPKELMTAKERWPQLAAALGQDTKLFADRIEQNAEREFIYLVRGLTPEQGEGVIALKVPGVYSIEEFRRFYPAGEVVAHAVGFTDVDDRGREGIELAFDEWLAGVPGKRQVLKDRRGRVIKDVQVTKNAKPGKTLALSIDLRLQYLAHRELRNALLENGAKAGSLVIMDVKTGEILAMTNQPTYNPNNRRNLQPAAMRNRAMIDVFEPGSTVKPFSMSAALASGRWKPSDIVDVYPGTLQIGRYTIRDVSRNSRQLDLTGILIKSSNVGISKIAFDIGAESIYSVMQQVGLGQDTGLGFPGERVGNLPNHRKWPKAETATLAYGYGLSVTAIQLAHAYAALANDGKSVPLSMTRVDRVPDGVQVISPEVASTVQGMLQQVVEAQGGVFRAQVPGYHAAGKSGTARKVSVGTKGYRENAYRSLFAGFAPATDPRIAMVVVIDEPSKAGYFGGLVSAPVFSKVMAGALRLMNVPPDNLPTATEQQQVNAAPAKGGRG
T1 sequence (P0AD68 1-577): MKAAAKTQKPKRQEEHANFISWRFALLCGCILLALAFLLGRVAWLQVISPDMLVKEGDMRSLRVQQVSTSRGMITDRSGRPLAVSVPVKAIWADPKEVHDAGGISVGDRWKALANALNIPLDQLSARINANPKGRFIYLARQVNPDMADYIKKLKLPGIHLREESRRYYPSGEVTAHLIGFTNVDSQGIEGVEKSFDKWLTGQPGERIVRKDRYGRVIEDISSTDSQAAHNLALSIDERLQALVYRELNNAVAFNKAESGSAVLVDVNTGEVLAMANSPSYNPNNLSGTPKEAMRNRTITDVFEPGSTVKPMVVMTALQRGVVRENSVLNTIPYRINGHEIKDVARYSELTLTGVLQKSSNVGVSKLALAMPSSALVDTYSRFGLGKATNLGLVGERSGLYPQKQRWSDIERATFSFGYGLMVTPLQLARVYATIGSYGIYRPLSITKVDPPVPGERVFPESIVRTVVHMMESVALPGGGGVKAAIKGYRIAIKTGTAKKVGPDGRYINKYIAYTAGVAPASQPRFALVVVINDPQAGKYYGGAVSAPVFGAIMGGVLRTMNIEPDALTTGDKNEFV

Row | Compound | EC50 [1] [µM] | IC50 [2] [µM] | IC50 [3] [µM] | MIC (A. baumannii ATCC 17978) [µg/mL] | MIC (P. aeruginosa CDC-0090) [µg/mL] | MIC (A. baumannii CDC-0033) [µg/mL] | MIC [4, 5] [µg/mL] | MIC (N. gonorrhoeae WHO L; [6]) [µg/mL] | MIC [4, 7] [µg/mL] | MIC (N. gonorrhoeae WHO L; [8]) [µg/mL]
1 | O=C(NCCN1CCN(C(=O)NC(C(=O)N[C@H]2Cc3ccc(F)c(C(=O)O)c3OB2O)c2cc(F)c(O)c(O)c2Cl)C(=O)C1=O)c1cccc(O)c1 (stereo partly drawn) [Example 215, (3R)-3-(2-(2-chloro-5-fluoro-3,4-dihydroxyphenyl)-2-(4-(2-(3-hydroxybenzamido)ethyl)-2,3-dioxopiperazine-1-carboxamido)acetamido)-7-fluoro-2-hydroxy-3,4-dihydro-2H-benzo[e][1,2]oxaborinine-8-carboxylic acid] | < 10 | < 10 | > 250 | < 1 | < 1 | 8 to 16 (≈ 10.7 to 21.5 µM) | 16 to 32 (≈ 21.5 to 42.9 µM) | > 64 |  | 
2 | CN(CCN1CCN(C(=O)N[C@@H](C(=O)N[C@H]2Cc3ccc(F)c(C(=O)O)c3OB2O)c2cc(F)c(O)c(O)c2Cl)C(=O)C1=O)Cc1nccs1 [Example 200, (R)-3-((R)-2-(2-chloro-5-fluoro-3,4-dihydroxyphenyl)-2-(4-(2-(methyl(thiazol-2-ylmethyl)amino)ethyl)-2,3-dioxopiperazine-1-carboxamido)acetamido)-7-fluoro-2-hydroxy-3,4-dihydro-2H-benzo[e][1,2]oxaborinine-8-carboxylic acid] | 10 to 50 | < 10 | > 250 | < 1 | < 1 | 2 to 4 (≈ 2.71 to 5.43 µM) | 4 to 8 (≈ 5.43 to 10.9 µM) | > 64 |  | 
3 | O=C(NCCS(=O)(=O)N1CCN(C(=O)NC(C(=O)N[C@H]2Cc3ccc(F)c(C(=O)O)c3OB2O)c2cc(F)c(O)c(O)c2Cl)C1=O)c1cccnc1 (stereo partly drawn) [Example 262, (3R)-3-(2-(2-chloro-5-fluoro-3,4-dihydroxyphenyl)-2-(3-((2-(nicotinamido)ethyl)sulfonyl)-2-oxoimidazolidine-1-carboxamido)acetamido)-7-fluoro-2-hydroxy-3,4-dihydro-2H-benzo[e][1,2]oxaborinine-8-carboxylic acid] | < 10 | < 10 | > 250 | < 1 | < 1 | 2 to 4 (≈ 2.61 to 5.22 µM) |  |  | 16 to 32 (≈ 20.9 to 41.7 µM) | > 64
4 | O=C(NCCN1CCN(C(=O)NC(C(=O)N[C@H]2Cc3ccc(F)c(C(=O)O)c3OB2O)c2cc(F)c(O)c(O)c2Cl)C(=O)C1=O)c1ccncc1 (stereo partly drawn) [Example 216, (3R)-3-(2-(2-chloro-5-fluoro-3,4-dihydroxyphenyl)-2-(4-(2-(isonicotinamido)ethyl)-2,3-dioxopiperazine-1-carboxamido)acetamido)-7-fluoro-2-hydroxy-3,4-dihydro-2H-benzo[e][1,2]oxaborinine-8-carboxylic acid] | < 10 | < 10 | > 250 | < 1 | < 1 | 8 to 16 (≈ 10.9 to 21.9 µM) | 16 to 32 (≈ 21.9 to 43.8 µM) | > 64 |  | 
5 | O=C(O)c1c(F)ccc2c1OB(O)[C@@H](NC(=O)C(NC(=O)N1CCN(S(=O)(=O)CCCNC(=O)[C@@H]3CCCN3)C1=O)c1cc(F)c(O)c(O)c1Cl)C2 (stereo partly drawn) [Example 275, (3R)-3-(2-(2-chloro-5-fluoro-3,4-dihydroxyphenyl)-2-(2-oxo-3-((3-((S)-pyrrolidine-2-carboxamido)propyl)sulfonyl)imidazolidine-1-carboxamido)acetamido)-7-fluoro-2-hydroxy-3,4-dihydro-2H-benzo[e][1,2]oxaborinine-8-carboxylic acid] | 10 to 50 | < 10 | > 250 | < 1 | 8 to 16 (≈ 10.4 to 20.7 µM) | 8 to 16 (≈ 10.4 to 20.7 µM) |  |  | 16 to 32 (≈ 20.7 to 41.4 µM) | > 64
6 | O=C(CN1CCN(C(=O)NC(C(=O)N[C@H]2Cc3ccc(F)c(C(=O)O)c3OB2O)c2cc(F)c(O)c(O)c2Cl)C(=O)C1=O)NCc1ccccc1 (stereo partly shown) [Example 238] | < 10 | < 10 | > 250 | < 1 | 2 to 4 (≈ 2.74 to 5.48 µM) | 8 to 16 (≈ 11 to 21.9 µM) | 16 to 32 (≈ 21.9 to 43.8 µM) | > 64 |  | 
7 | O=C(NCCCN1CCN(C(=O)N[C@@H](C(=O)N[C@H]2Cc3ccc(F)c(C(=O)O)c3OB2O)c2cc(F)c(O)c(O)c2Cl)C1=O)c1ccccc1 [Example 253, (R)-3-((R)-2-(3-(3-benzamidopropyl)-2-oxoimidazolidine-1-carboxamido)-2-(2-chloro-5-fluoro-3,4-dihydroxyphenyl)acetamido)-7-fluoro-2-hydroxy-3,4-dihydro-2H-benzo[e][1,2]oxaborinine-8-carboxylic acid] | < 10 | < 10 | > 250 | < 1 | 2 to 4 (≈ 2.79 to 5.59 µM) | < 1 |  |  | 16 to 32 (≈ 22.4 to 44.7 µM) | > 64
8 | O=C(CN1CCN(C(=O)NC(C(=O)N[C@H]2Cc3ccc(F)c(C(=O)O)c3OB2O)c2cc(F)c(O)c(O)c2Cl)C(=O)C1=O)Nc1cccc(O)c1 (stereo partly drawn) [Example 231, (3R)-3-(2-(2-chloro-5-fluoro-3,4-dihydroxyphenyl)-2-(4-(2-((3-hydroxyphenyl)amino)-2-oxoethyl)-2,3-dioxopiperazine-1-carboxamido)acetamido)-7-fluoro-2-hydroxy-3,4-dihydro-2H-benzo[e][1,2]oxaborinine-8-carboxylic acid] | < 10 | < 10 | > 250 | < 1 | 2 to 4 (≈ 2.73 to 5.47 µM) | 8 to 16 (≈ 10.9 to 21.9 µM) | 16 to 32 (≈ 21.9 to 43.7 µM) | > 64 |  | 
